{
  "source": "the supplement of paper PMC5722580",
  "key": {"KHYG-1": {"tested_on": "KHYG-1", "assay": "drug sensitivity score (viability inhibition); higher = more sensitive", "details": "72 h; IL2 2.5 ng/ml", "summary_of_the_method": "(§1)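 The experiment was repeated twice, each time with NK cell lines added at 3 000 cells/well in complete RPMI with 2.5 ng/ml IL2 to 384-well plates holding 5-8 drug concentrations over a 10 000-fold range. After 72 h at 37 °C, 5% CO2, a PHERAstar FS plate reader recorded CellTiter-Glo viability. From these readings, the drug sensitivity score was calculated as an optimized area under the dose-response curve.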"}, "NK-YS": {"tested_on": "NK-YS", "assay": "drug sensitivity score (viability inhibition); higher = more sensitive", "details": "72 h; IL2 2.5 ng/ml", "summary_of_the_method": "as §1"}, "YT": {"tested_on": "YT", "assay": "drug sensitivity score (viability inhibition); higher = more sensitive", "details": "72 h; IL2 2.5 ng/ml", "summary_of_the_method": "as §1"}, "NKL": {"tested_on": "NKL", "assay": "drug sensitivity score (viability inhibition); higher = more sensitive", "details": "72 h; IL2 2.5 ng/ml", "summary_of_the_method": "as §1"}, "SNK6": {"tested_on": "SNK6", "assay": "drug sensitivity score (viability inhibition); higher = more sensitive", "details": "72 h; IL2 2.5 ng/ml", "summary_of_the_method": "as §1"}, "NK-92": {"tested_on": "NK-92", "assay": "drug sensitivity score (viability inhibition); higher = more sensitive", "details": "72 h; IL2 2.5 ng/ml", "summary_of_the_method": "as §1"}, "KAI3": {"tested_on": "KAI3", "assay": "drug sensitivity score (viability inhibition); higher = more sensitive", "details": "72 h; IL2 2.5 ng/ml", "summary_of_the_method": "as §1"}, "HEK293-SIE STAT3 WT": {"tested_on": "HEK293-SIE STAT3 WT", "assay": "drug sensitivity score (inhibition of STAT3 luciferase reporter); higher = stronger inhibition", "details": "6 h; STAT3: WT; IL6 100 ng/ml", "summary_of_the_method": "(§2)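 The drug sensitivity score is an optimized area under the curve for inhibition of a STAT3-responsive luciferase reporter across drug doses. To obtain it, HEK293 reporter cells stably expressing wild-type or mutant STAT3 from a lentivirus were seeded at 10 000 cells/well into 384-well drug plates, and wild-type cells were stimulated with IL6 (100 ng/ml). Cells were treated for 6 h at 5-8 concentrations over a 10 000-fold range, read with ONE-Glo on a PHERAstar FS, and two experiments were averaged.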"}, "HEK293-SIE STAT3 Y640F": {"tested_on": "HEK293-SIE STAT3 Y640F", "assay": "drug sensitivity score (inhibition of STAT3 luciferase reporter); higher = stronger inhibition", "details": "6 h; IL6 0 ng/ml", "summary_of_the_method": "as §2"}},
  "data": [
    {"smiles": "C[C@@H]1CC(=O)c2c(ccc3c2C(=O)c2cccc(O)c2C3=O)C1", "note": "[STA-21]", "values": [
      {"measurement": "drug sensitivity score", "setting": "KHYG-1", "value": 10, "unit": "DSS"},
      {"measurement": "drug sensitivity score", "setting": "NK-YS", "value": 9.69, "unit": "DSS"},
      {"measurement": "drug sensitivity score", "setting": "YT", "value": 5.75, "unit": "DSS"},
      {"measurement": "drug sensitivity score", "setting": "NKL", "value": 11.5, "unit": "DSS"},
      {"measurement": "drug sensitivity score", "setting": "SNK6", "value": 2.24, "unit": "DSS"},
      {"measurement": "drug sensitivity score", "setting": "NK-92", "value": 4.92, "unit": "DSS"},
      {"measurement": "drug sensitivity score", "setting": "KAI3", "value": 2.22, "unit": "DSS"},
      {"measurement": "drug sensitivity score", "setting": "HEK293-SIE STAT3 WT", "value": 10.3, "unit": "DSS"},
      {"measurement": "drug sensitivity score", "setting": "HEK293-SIE STAT3 Y640F", "value": 11.5, "unit": "DSS"}
    ]},
    {"smiles": "C[C@]12C=CC(=O)C=C1CC[C@@H]1[C@@H]2[C@@H](O)C[C@@]2(C)[C@H]1CC[C@]2(O)C(=O)CO", "note": "[Prednisolone]", "values": [
      {"measurement": "drug sensitivity score", "setting": "KHYG-1", "value": 6.65, "unit": "DSS"},
      {"measurement": "drug sensitivity score", "setting": "NK-YS", "value": 1.37, "unit": "DSS"},
      {"measurement": "drug sensitivity score", "setting": "YT", "value": 5.05, "unit": "DSS"},
      {"measurement": "drug sensitivity score", "setting": "NKL", "value": 11, "unit": "DSS"},
      {"measurement": "drug sensitivity score", "setting": "SNK6", "value": 2.12, "unit": "DSS"},
      {"measurement": "drug sensitivity score", "setting": "NK-92", "value": 0, "unit": "DSS"},
      {"measurement": "drug sensitivity score", "setting": "KAI3", "value": 0, "unit": "DSS"},
      {"measurement": "drug sensitivity score", "setting": "HEK293-SIE STAT3 WT", "value": 0, "unit": "DSS"},
      {"measurement": "drug sensitivity score", "setting": "HEK293-SIE STAT3 Y640F", "value": 0, "unit": "DSS"}
    ]}
  ]
}
